Experimental data published in US7582627B2, “3-aminoquinazolin-2,4-dione antibacterial agents” (Warner-Lambert Company, priority 2000, dated 2009).
Values after ≈ are worked out from the molar mass of the structure shown. Counter-ions that a name gives are not always drawn. Like-named read-outs stand apart in the source and are kept apart here.

Assays:
[1] = target: T1, E. coli gyrase (Escherichia coli, UniProt P0AES4+P0AES6); assay: DNA gyrase supercoiling inhibition assay; assay type: biochemical
T1 construct: purchased Lucent, Ltd., Leicester, UK
T1 sequence (P0AES4 whole entry, one chain of several): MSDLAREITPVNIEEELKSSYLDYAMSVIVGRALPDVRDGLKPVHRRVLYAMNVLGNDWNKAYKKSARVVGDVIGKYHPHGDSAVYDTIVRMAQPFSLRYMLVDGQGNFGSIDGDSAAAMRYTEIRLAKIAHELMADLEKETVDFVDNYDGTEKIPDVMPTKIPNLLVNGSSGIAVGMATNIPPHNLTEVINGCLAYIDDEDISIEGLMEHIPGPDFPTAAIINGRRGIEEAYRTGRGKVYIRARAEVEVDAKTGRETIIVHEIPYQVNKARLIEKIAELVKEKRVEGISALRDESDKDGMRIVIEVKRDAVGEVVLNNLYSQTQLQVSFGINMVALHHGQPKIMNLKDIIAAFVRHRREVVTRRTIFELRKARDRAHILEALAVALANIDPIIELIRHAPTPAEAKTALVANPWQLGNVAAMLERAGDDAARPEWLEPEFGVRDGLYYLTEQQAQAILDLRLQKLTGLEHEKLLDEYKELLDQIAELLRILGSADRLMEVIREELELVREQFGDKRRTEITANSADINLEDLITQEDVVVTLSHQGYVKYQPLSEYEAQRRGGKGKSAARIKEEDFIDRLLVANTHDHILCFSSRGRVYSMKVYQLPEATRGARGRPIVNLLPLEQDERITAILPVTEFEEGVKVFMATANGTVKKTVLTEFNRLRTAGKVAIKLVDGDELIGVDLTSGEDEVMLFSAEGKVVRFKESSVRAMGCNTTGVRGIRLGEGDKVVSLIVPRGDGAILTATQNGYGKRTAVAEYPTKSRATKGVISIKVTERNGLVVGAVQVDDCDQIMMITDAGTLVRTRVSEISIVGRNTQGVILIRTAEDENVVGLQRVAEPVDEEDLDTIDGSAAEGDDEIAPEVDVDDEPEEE
Description: The effects of invention compounds on the activity of DNA gyrase is determined in the supercoiling inhibition assay, following reaction conditions recommended by the enzyme supplier (Lucent, Ltd., Leicester, UK). Reactions are performed in buffer G (35 mM Tris-HCl (pH 7.5), 24 mM KCl, 4 mM MgCl2, 2 mM DTT, 1.8 mM spermidine, 1 mM ATP, 0.1 mg/mL bovine serum albumin). Relaxed plasmid pBR322 (0.25 μg, Lucent, Ltd., Leicester, UK) is reacted with 1 U E. coli gyrase (Lucent, Ltd., Leicester, UK), in the absence or presence of test compounds, for 30 minutes at 37° C. Reactions are stopped by the addition of SDS and proteinase K to respective final concentrations of 1% and 0.5 mg/mL. After an additional 30 minutes at 37° C., one-tenth volume of 10× loading buffer (0.3% bromophenol blue, 16% Ficoll, 10 mM Na2HPO4) is added, and reactions are loaded onto agarose gels and electrophoresed. The concentration of representative invention compounds of Formula I inhibiting 50% of the supercoiling activity of DNA gyrase is given as an IC50 and recorded in Table 2.

[2] = test system: E. faecalis RB1; assay: Antibacterial assay, microtitration MIC; assay type: cell-based; settings: for MIC: Enterococcus faecalis
Description: (§1) The compounds of the present invention are tested against an assortment of Gram negative and Gram positive organisms using standard microtitration techniques (Cohen et al., Antimicrob. Agents Chemother., 1985; 28:766; Heifetz et al., Antimicrob. Agents Chemother., 1974; 6:124). The results of the evaluation of representative 3-aminoquinazolin-2,4-diones of Formula I are shown in Table 2 and compared to two 3-hydroxyquinazolin-2,4-diones.

[3] = test system: S. pyogenes C203; assay: Antibacterial assay, microtitration MIC; assay type: cell-based; settings: for MIC: Streptococcus pyogenes
Description: as §1

[4] = test system: E. coli Tol C; assay: Antibacterial assay, microtitration MIC; assay type: cell-based; settings: for MIC: Escherichia coli, read-out: Minimum Inhibitory Concentrations E. coli Tol C
Description: as §1

[5] = test system: E. coli B90; assay: Antibacterial assay, microtitration MIC; assay type: cell-based; settings: for MIC: Escherichia coli
Description: as §1

[6] = test system: E. coli MC4100; assay: Antibacterial assay, microtitration MIC; assay type: cell-based; settings: for MIC: Escherichia coli
Description: as §1

[7] = test system: S. aureus 29213; assay: Antibacterial assay, microtitration MIC; assay type: cell-based
Description: as §1

[8] = RB1, Gram positive, read-out: Minimum Inhibitory Concentrations E. faecalis RB1
[9] = C203, Gram positive, read-out: Minimum Inhibitory Concentrations S. pyogenes C203
[10] = B90, Gram negative, read-out: Minimum Inhibitory Concentrations E. coli B90
[11] = MC4100, Gram negative, read-out: Minimum Inhibitory Concentrations E. coli MC4100
[12] = Staphylococcus aureus, 29213, Gram positive, read-out: Minimum Inhibitory Concentrations S. aureus 29213
[13] = supercoiling of relaxed pBR322, 30 minutes at 37° C., read-out: E. coli gyrase IC50
[14] = RB1, read-out: Minimum Inhibitory Concentrations E. faecalis RB1
[15] = C203, read-out: Minimum Inhibitory Concentrations S. pyogenes C203
[16] = B90, read-out: Minimum Inhibitory Concentrations E. coli B90
[17] = MC4100, read-out: Minimum Inhibitory Concentrations E. coli MC4100
[18] = Staphylococcus aureus, 29213, read-out: Minimum Inhibitory Concentrations S. aureus 29213

`Cl.N[C@@H]1CN(c2c(F)cc3c(=O)n(N)c(=O)n(C4CC4)c3c2Cl)CC12CC2` [Compound 14, 3-Amino-7-((S)-7-amino-5-azaspiro[2.4]hept-5-yl)-8-chloro-1-cyclopropyl-6-fluoro-1H-quinazoline-2,4-dione hydrochloride] gave a melting point of 177 to 179 °C, an IC50 [1] of 2.4 µM and an MIC [2, 8] of 8 mg/L. For the same molecule, the MIC [3, 9] was 4 mg/L, the MIC [4] was 0.5 mg/L and the MIC [5, 10] was 0.25 mg/L. For the same molecule, the MIC [6, 11] was 4 mg/L and the MIC [7, 12] was 8 mg/L.
In the case of `N[C@H]1CCN(c2c(F)c(F)c3c(=O)n(N)c(=O)n(C4CC4)c3c2F)C1` [Compound 9, 3-Amino-7-((S)-3-aminopyrrolidin-1-yl)-1-cyclopropyl-5,6,8-trifluoro-1H-quinazoline-2,4-dione hydrochloride], the IC50 [1, 13] is reported as 3 µM, the MIC [2, 14] is reported as 32 mg/L and the MIC [3, 15] is reported as 16 mg/L. For the same molecule, the MIC [4] was 0.5 mg/L, the MIC [5, 16] was 1 mg/L and the MIC [6, 17] was 2 mg/L. The MIC [7, 18] was 16 mg/L.
With `Cl.N[C@H]1CCN(c2c(F)cc3c(=O)n(N)c(=O)n(NC4CC4)c3c2F)C1` [Compound 7, 3-Amino-7-[(S)-3-aminopyrrolidin-1-yl]-1-cyclopropylamino-6,8-difluoro-1H-quinazoline-2,4-dione hydrochloride] the IC50 [1, 13] was 1.3 µM, the “Minimum Inhibitory Concentrations E. faecalis RB1” value ([2]; Gram positive) was 8.0 µg/mL and the “Minimum Inhibitory Concentrations S. pyogenes C203” value ([3]; Gram positive) was 4.0 µg/mL. For the same molecule, the “Minimum Inhibitory Concentrations E. coli Tol C” value ([4]; Gram negative) was 0.25 µg/mL, the “Minimum Inhibitory Concentrations E. coli B90” value ([5]; Gram negative) was 0.5 µg/mL and the “Minimum Inhibitory Concentrations E. coli MC4100” value ([6]; Gram negative) was 2.0 µg/mL. For the same molecule, the “Minimum Inhibitory Concentrations S. aureus 29213” value ([7]; Gram positive) was 8.0 µg/mL.
Work on `Nc1c(F)c(N2CC[C@H](N)C2)c(F)c2c1c(=O)n(N)c(=O)n2C1CC1` [Compound 11, 7-((S)-3-Aminopyrrolidin-1-yl)-1-cyclopropyl-3,5-diamino-6,8-difluoro-1H-quinazoline-2,4-dione hydrochloride] yielded an IC50 [1, 13] of 11 µM, an MIC [2, 14] of 8 mg/L and an MIC [3, 15] of 4 mg/L. For the same molecule, the MIC [4] was 0.25 mg/L, the MIC [5, 16] was 0.5 mg/L and the MIC [6, 17] was 2 mg/L. The MIC [7, 18] was 8 mg/L.
`CC(C)NCC1CCN(c2c(F)cc3c(=O)n(N)c(=O)n(C4CC4)c3c2Cl)C1.Cl` (stereo not drawn) showed a melting point of 125 to 127 °C.
For `Cl.NC[C@@H]1CN(c2nc3c(cc2F)c(=O)n(N)c(=O)n3C2CC2)C[C@H]1C(F)(F)F` (relative stereo), the melting point was 214 to 216 °C.
For `COc1c(N2CCCC(CN)C2)c(F)cc2c(=O)n(N)c(=O)n(C3CC3)c12.Cl` (stereo not drawn), the melting point was 201 °C.
Molecule `Cc1c(N2C[C@@H](CN)[C@H](C)C2)c(F)cc2c(=O)n(N)c(=O)n(C3CC3)c12.Cl` (relative stereo) has a melting point of 220 °C.
`Cl.Nn1c(=O)c2cc(F)c(N3CCC(CNCC(F)(F)F)C3)c(Cl)c2n(C2CC2)c1=O` (stereo not drawn) gave a melting point of 163 to 164 °C.
`O=c1c2cc(F)c(N3C[C@@H]4CCCN[C@@H]4C3)cc2n(C2CC2)c(=O)n1O` [reference compound] gave an IC50 [1, 13] of 5 µM, an MIC [2, 8] of 64 mg/L (≈ 178 µM) and an MIC [3, 9] of 32 mg/L (≈ 88.8 µM). For the same molecule, the MIC [4] was 1 mg/L (≈ 2.77 µM), the MIC [5, 10] was 2 mg/L (≈ 5.55 µM) and the MIC [6, 11] was 8 mg/L (≈ 22.2 µM). It also gave an MIC [7, 12] of 32 mg/L (≈ 88.8 µM).
`Cl.Nn1c(=O)c2cc(F)c(N3CCC(N)(c4ccccc4)C3)c(Cl)c2n(C2CC2)c1=O` (stereo not drawn) gave a melting point of 198 to 200 °C.
Molecule `Cl.NCC1(Cc2ccccc2)CCN(c2c(F)cc3c(=O)n(N)c(=O)n(C4CC4)c3c2Cl)C1` (stereo not drawn) has a melting point of 148 to 150 °C.
Molecule `N[C@@H]1[C@H]2CN(c3cc4c(cc3F)c(=O)n(O)c(=O)n4C3CC3)C[C@@H]12` [drawing 284, reference compound] has an IC50 [1, 13] of 0.9 µM, an MIC [2, 8] of 4 mg/L (≈ 12 µM) and an MIC [3, 9] of 2 mg/L (≈ 6.02 µM). The MIC [4] was 0.25 mg/L (≈ 0.752 µM), the MIC [5, 10] was 0.25 mg/L (≈ 0.752 µM) and the MIC [6, 11] was 1 mg/L (≈ 3.01 µM). For the same molecule, the MIC [7, 12] was 4 mg/L (≈ 12 µM).
With `NC1CCN(c2c(Cl)cc3c(=O)n(N)c(=O)n(C4CC4)c3c2F)C1.O=C(O)C(F)(F)F` (stereo not drawn) the melting point was 135 to 137 °C.
With `NC1CCN(c2ccc3c(=O)n(N)c(=O)n(C4CC4)c3c2F)C1.O=C(O)C(F)(F)F` (stereo not drawn) the melting point was 210 to 212 °C.
In the case of `COc1c(N2CC3CC3(CN)C2)c(F)cc2c(=O)n(N)c(=O)n(C3CC3)c12.Cl` (stereo not drawn), the melting point is reported as 183 to 185 °C.
`COc1c(N2CCC(N)C2)c(F)cc2c(=O)n(N)c(=O)n(C3CC3)c12.Cl` (stereo not drawn) gave a melting point of 216 to 218 °C.
With `C[C@H](N)[C@@H]1CCN(c2nc3c(cc2F)c(=O)n(N)c(=O)n3C2CC2)C1.Cl` the melting point was > 260 °C.
With `Cl.NC1C2CN(c3nc4c(cc3F)c(=O)n(N)c(=O)n4C3CC3)CC12` (stereo not drawn) the melting point was 268 to 270 °C.
In the case of `COc1c(N2C[C@@H](C)[C@H](N)C2)c(F)cc2c(=O)n(N)c(=O)n(C3CC3)c12.Cl` (relative stereo), the melting point is reported as 209 °C.
`Cl.NCC1CCN(c2c(Cl)cc3c(=O)n(N)c(=O)n(C4CC4)c3c2Cl)C1` (stereo not drawn) gave a melting point of 147 to 149 °C.
`NC(=O)C1CCCN(c2c(F)cc3c(=O)n(N)c(=O)n(C4CC4)c3c2Cl)C1` (stereo not drawn) [Compound 58, 1-(3-Amino-8-chloro-1-cyclopropyl-6-fluoro-2,4-dioxo-1,2,3,4-tetrahydroquinazolin-7-yl)piperidine-3-carboxylic acid amide] gave a melting point of 141 to 144 °C.
With `COC1(C(C)N)CCN(c2c(F)cc3c(=O)n(N)c(=O)n(C4CC4)c3c2C)C1.Cl` (stereo not drawn) the melting point was 190 to 192 °C.
With `COc1c(N2CCC(CN)C2)c(F)cc2c(=O)n(N)c(=O)n(C3CC3)c12.Cl` (stereo not drawn) the melting point was 180 to 182 °C.
`CC1CCc2c(N3CC[C@@H]([C@H](C)N)C3)c(F)cc3c(=O)n(N)c(=O)n1c23.Cl` (stereo partly drawn) gave a melting point of 197 to 199 °C.
With `Cc1c(N2CCC(N)C2)c(F)cc2c(=O)n(N)c(=O)n(C3CC3)c12.O=C(O)C(F)(F)F` (stereo not drawn) the melting point was 110 to 112 °C.
With `Cl.Nn1c(=O)c2cc(F)c(N3CC4CCNCC4C3)nc2n(C2CC2)c1=O` (stereo not drawn) the melting point was 200 to 203 °C.
In the case of `Cc1c(N2CC(C(C)N)C3(CC3)C2)c(F)cc2c(=O)n(N)c(=O)n(C3CC3)c12.Cl` (stereo not drawn), the melting point is reported as 178 to 180 °C.
For `COc1c(N2CCC(C(=O)O)C2)c(F)cc2c(=O)n(N)c(=O)n(C3CC3)c12.O=C(O)C(F)(F)F` (stereo not drawn), the melting point was 252 °C (dec.).
`C[C@@H]1CN(c2c(F)cc3c(=O)n(N)c(=O)n(C4CC4)c3c2Cl)C[C@H]1CN.Cl` (relative stereo) gave a melting point of 215 to 217 °C.
Molecule `Cl.N[C@@H]1CN(c2c(F)cc3c(=O)n(N)c(=O)n(C4CC4)c3c2Cl)C[C@H]1c1ccccc1` (relative stereo) has a melting point of 174 to 175 °C.
With `COCC1(CN)CCN(c2c(F)cc3c(=O)n(N)c(=O)n(C4CC4)c3c2C)C1.Cl` (stereo not drawn) the melting point was 172 to 177 °C.
With `COc1c(N2C[C@@H](CN)[C@H](F)C2)c(F)cc2c(=O)n(N)c(=O)n(C3CC3)c12.Cl` (relative stereo) the melting point was 144 to 147 °C.
In the case of `COc1c(N2CC(N)C(OC)C2)c(F)cc2c(=O)n(N)c(=O)n(C3CC3)c12.Cl` (stereo not drawn), the melting point is reported as > 250 °C.
With `Cl.NCC1CCCN(c2c(F)cc3c(=O)n(N)c(=O)n(C4CC4)c3c2Cl)C1` (stereo not drawn) the melting point was 131 to 133 °C.
Molecule `COc1c(N2CC(CN)C3(CC3)C2)c(F)cc2c(=O)n(N)c(=O)n(C3CC3)c12.Cl` (stereo not drawn) has a melting point of 178 °C.
With `CCN[C@@H](C)[C@@H]1CCN(c2c(F)cc3c(=O)n(N)c(=O)n(C4CC4)c3c2C)C1.Cl` the melting point was 210 to 215 °C.
For `Nn1c(=O)c2cc(F)c(N3CCC(=NO)C3)c(Cl)c2n(C2CC2)c1=O` [Compound 65, 3-Amino-8-chloro-1-cyclopropyl-6-fluoro-7-(3-hydroxyimino-pyrrolidin-1-yl)-1H-quinazoline-2,4-dione], the melting point was 147 to 149 °C.
